Results on 100 compounds are retold here after ChEMBL document CHEMBL3507680, “University of Dundee, Gates Library screen for HepG2 cell viability”.

The data set can be described thus: Human HepG2 cell viability assay in 384 well format. It is filed as toxicity, cell-based. Also noted: dose 125 nL, time 70.5 hour; cytotoxicity at 70.5 h: concentration not given beside the values. To be noted: HepG2 cells, read-out: Inhibition.
On to `O=C(CN1CCN(CCO)CC1)NCc1ccc(Cl)s1`, for which the cytotoxicity at 70.5 h is -1.03%.
On to `N#Cc1cc(N2CCC(S(N)(=O)=O)CC2)c2ccccc2n1`, for which the cytotoxicity at 70.5 h is -2.54%.
Take `N#Cc1cc(N2CCC(CS(N)(=O)=O)CC2)nc2ccccc12`: the cytotoxicity at 70.5 h came to 1.54%.
Take `N#Cc1cc(N2CCC(CS(N)(=O)=O)CC2)c2ccccc2n1`: the cytotoxicity at 70.5 h is 14.9%.
With `CSc1nc(C2CC2)nc(C)c1C(=O)NCc1cc(C)on1`, the cytotoxicity at 70.5 h is -0.104%.
In the case of `O=C(c1ccc[nH]1)N1CCCC1c1nc(-c2ccccc2)n[nH]1` (stereo not given), the cytotoxicity at 70.5 h is -1.48%.
As for `COC(=O)CN(Cc1ccccc1C)C(=O)C1CCC1`, the figure is 8.03%.
The result for `CCOCCS(=O)(=O)N(CC)Cc1ccc(Cl)s1` reads -11.4%.
The result for `O=S(=O)(NCCc1c[nH]c2ccc(F)cc12)C1CCOCC1` reads -16%; that for `CC(Nc1ccc(CCN2CCCCC2)cc1)C(=O)N(C)CCC#N` (stereo not given), -6.46%; that for `CN(C(=O)c1ccc(OCC(F)F)nc1)c1ccc2c(c1)CCO2`, -4.77%.
In the case of `COC(=O)CN(Cc1ccccc1C)C(=O)CCCNC(=O)C1CC1`, the cytotoxicity at 70.5 h was 10.1%.
As for `Cc1ccc(NC(=O)CCc2ccco2)cc1N1CCOC1=O`, the figure is -10.1%; as for `CCCc1nnc(NC(=O)N2CCCC(NC(C)=O)C2)s1` (stereo not given), -4.43%.
As for `COc1ccc(S(=O)(=O)Cc2cc(C)on2)cc1`, the figure is -4.34%; as for `COc1cccc(S(=O)(=O)Cc2cc(C)on2)c1`, -3.06%; as for `Cc1cc(CS(=O)(=O)c2ccccc2)no1`, -5.49%.
On to `Cc1nc(NC(=O)C(C)S(C)(=O)=O)sc1Cc1ccccc1F` (stereo not given), for which the cytotoxicity at 70.5 h is -7.43%.
The result for `COC(=O)N1CCC(NC(=O)CC(C)CCc2ccccc2)CC1` (stereo not given) reads -14%; that for `CC(CCc1ccccc1)CC(=O)NC1CCN(CC(N)=O)CC1` (stereo not given), 0.475%.
Turning to `COc1ccnc(N2CCN(C(=O)CCc3cnn(C)c3)CC2)n1`, the cytotoxicity at 70.5 h was -11.9%.
As for `COc1cc(OC)c(CNC(=O)NCC(=O)N(C)C)c(OC)c1`, the figure is 1.38%.
Consider `NC(=O)C1CCCN1Cc1ccccc1NC(=O)Cc1cccs1` (stereo not given), for which the cytotoxicity at 70.5 h was determined as 13%.
As for `N#Cc1ccc(NC2CCN(c3ncccn3)CC2)cc1C(F)(F)F`, the figure is 5.96%.
As for `CCNC(=O)CCC(=O)Nc1nc(C)c(Cc2ccc(F)cc2)s1`, the figure is -1.26%.
The result for `CSCCC(C)NC(=O)CCN1C(=O)CCc2cc(F)ccc21` (stereo not given) reads -4.19%; that for `Cc1ccc(C(=O)NS(C)(=O)=O)cc1I`, 16.8%; that for `Cc1cc(NC(N)=O)ccc1C(=O)N(C)C`, 4.17%.
As for `CC(O)CNc1nc(-c2cccnc2)nc2c1CCC2` (stereo not given), the cytotoxicity at 70.5 h stood at 0.874%.
The result for `Cn1ncnc1NS(=O)(=O)c1ccccc1` reads 6.82%.
The result for `CC(C)C(C)NC(=O)CCN1C(=O)CCc2cc(F)ccc21` (stereo not given) reads 19.4%; that for `Cc1cc(C)nc(NC2CCOC3(CCCC3)C2)n1` (stereo not given), 3.01%.
Take `CCOC(=O)CN1CCC(NC(=O)OC(C)(C)C)CC1`: the cytotoxicity at 70.5 h came out at 14.9%.
The result for `CCOC(C)c1noc(CN(C)C(=O)C2C(C)(C)C2(C)C)n1` (stereo not given) reads -2.89%; that for `Cc1cc(NCC(C)C)ccc1C(=O)N(C)C`, 13.4%.
The result for `Cc1nsc(NC2CCOC3(CCCC3)C2)n1` (stereo not given) reads -1.21%; that for `CCN(c1ccc(C(=O)N(Cc2cnn(C)c2)C(C)C)cn1)C(C)C`, -24.7%.
The result for `CC(C)NC(=O)CCCn1cnc2ccccc2c1=O` reads 16.8%; that for `CC(C)COC(C)C(=O)NCCNC(=O)C(C)C` (stereo not given), -1.79%; that for `O=C(CCCNC(=O)C1CCCO1)Nc1ccc(Cl)cc1` (stereo not given), 17.1%.
In the case of `Cc1csc(CNC(=O)NCC2(c3ccc4c(c3)OCO4)CC2)n1`, the cytotoxicity at 70.5 h was -2.06%.
The result for `CN(CCCc1cc(-c2ccc(F)cc2)n(C)n1)CC(N)=O` reads -11.3%; that for `Cc1cc(CN2CCN(c3ccnc(-c4ccccc4)n3)CC2)no1`, -4.67%.
As for `CC(C(N)=O)N(C)CCCc1cc(-c2ccc(F)cc2)n(C)n1` (stereo not given), the figure is -9.74%; as for `O=C(NCCNS(=O)(=O)C1CCCCC1)c1ccccc1`, -10.7%; as for `COCCn1ccc(NCc2cc3cc(F)ccc3o2)n1`, -6.3%.
As for `CC(C)c1nncn1CCNC(=O)c1ccc(Cl)cc1O`, the figure is 0.918%.
For `Cc1cc(C(=O)N2CCCS2(=O)=O)c(C)o1`, the cytotoxicity at 70.5 h is -9.77%.
The result for `Cc1cc(C(=O)N2CCS(=O)(=O)CC2)c(C)o1` reads -2.07%; that for `CCOc1ccc(CN(CCC#N)CCN2CCOCC2)cc1OC`, -0.151%; that for `COc1ccc(OC)c(CNc2nnc(C(C)(C)C)o2)c1`, -12.4%.
As for `COc1cccc(C2CN(CCc3ccncc3)CCO2)c1` (stereo not given), the figure is -6.16%; as for `CCCS(=O)(=O)NCCc1ncc(CC)s1`, -0.431%.
As for `COc1ccc(CN(CCC#N)CCN2CCOCC2)c(OC)c1`, the figure is -4.65%; as for `CN1CCC(NCC(O)c2cccc(OCc3ccccc3)c2)CC1` (stereo not given), 4.18%; as for `Cc1ncc(CNCC2CCC(C(N)=O)CC2)n1-c1ccccc1` (stereo not given), 11.9%.
Consider `Cc1ccccc1C(=O)NC1CCN(Cc2ncc(C(C)(C)C)o2)CC1`, for which the cytotoxicity at 70.5 h is -0.562%.
The result for `O=C(CSCc1ccncc1)N(Cc1ccsc1)C1CC1` reads 0.347%; that for `COc1ccc(CNC(=O)c2ccc(Br)cn2)cc1`, 13.3%.
The result for `COC(=O)CNC(=O)C12CCC(=O)N1c1cc(Cl)ccc1S2` (stereo not given) reads -1.84%; that for `CCc1noc(CN(CC(=O)N2CCCCC2)c2ccc(C)cc2)n1`, -1.63%.
As for `Nc1cc2c(nn1)CCN(C(=O)c1csc(-c3ccccc3)n1)C2`, the figure is -1.92%; as for `CC(C)(C)c1cnc(CN2CCC(NC(=O)CC3CCCC3)CC2)o1`, 14%; as for `Cc1ncc(C(=O)NC2CCN(CCOc3ccc(Br)cc3)CC2)s1`, -4.58%.
As to `O=C(CCc1cccc(Cl)c1)NS(=O)(=O)Cc1ccon1`, the cytotoxicity at 70.5 h worked out at 1.74%.
The result for `O=C(CCc1ccco1)NS(=O)(=O)Cc1ccon1` reads -3.83%; that for `COCCNC(=O)c1nc(-c2cn(C)cn2)n2ccccc12`, -7.59%; that for `O=C(c1cscn1)N1C[C@H]2CCC[C@@]2(COCc2ccccn2)C1`, -6.34%.
As for `CCS(=O)(=O)N1CCCn2nnc(CNC(C)=O)c2C1`, the figure is 7.38%; as for `O=C([C@H]1C[C@@H]2CN(c3ncc(F)cn3)C[C@H]1O2)N1CCCC1`, -9.42%.
As for `COC[C@@H]1CCC[C@@]12CN(C(=O)N(C)C)CCO2`, the figure is 0.626%; as for `CCOCc1cnc2n1CCN(C(=O)c1ccccc1)C2C` (stereo not given), 19.2%; as for `CC(=O)NCc1nnn2c1CN(c1ncc(C)cn1)CCC2`, -20.5%.
With `CCOCc1cnc2n1CCN(C(=O)c1cn(C)c3ccccc13)C2C` (stereo not given), the cytotoxicity at 70.5 h amounted to 8.97%.
`COCC(=O)NCc1cc(=O)n2c(n1)CN(Cc1ccco1)CCC2`: the cytotoxicity at 70.5 h is 2.27%.
The result for `Cn1nc(C(=O)N2CCOCC2)c2c1CN(CC1CCC1)C2` reads -5.26%; that for `c1cnc(N2CCOCC3(C2)CN(c2nccs2)CCO3)nc1` (stereo not given), -7.1%.
The result for `CS(=O)(=O)CC(=O)N1C[C@H]2CCC[C@@]2(COc2ccccn2)C1` reads 12.7%; that for `CS(=O)(=O)CC(=O)N1C[C@H]2CCC[C@@]2(COCc2ccncc2)C1`, -3.98%.
The result for `NC(=O)CC1CC2(CCNCC2)c2cc(F)ccc21` (stereo not given) reads -7.94%; that for `COCC1CC2(CCN(c3cc(OC)ncn3)CC2)CN1C(C)C` (stereo not given), -8.64%; that for `COCC1CC2(CCN(c3ccc(C)nn3)CC2)CN1C(C)C` (stereo not given), -10.4%.
With `CCO[C@H]1CN(CC2CC2)[C@@H]2CCCO[C@H]12`, the cytotoxicity at 70.5 h was 1.44%.
Consider `COc1cccc(CN2C[C@@H]3COC[C@]3(CNC(=O)C3CC3)C2)c1`, for which the cytotoxicity at 70.5 h is -9.15%.
As to `COCC1CC2(CCN(c3cccc(C)n3)CC2)CN1c1ncccn1` (stereo not given), the cytotoxicity at 70.5 h is -10.3%.
As for `O=C(c1cccnc1)N1CCC2(CCN(C(=O)c3ccco3)CC2)C1`, the figure is 2.92%; as for `CCC1=N[C@@]2(CC[C@@H]3CN(Cc4ccc(F)cc4)C[C@@H]32)C(=O)N1C`, 0.293%; as for `O=C(c1cccnc1)N1CCC2(CCN(C(=O)N3CCCC3)CC2)C1`, -0.226%.
As for `CC(C)N1CCc2c(C(=O)N3CCOCC3)nn(C)c2C1`, the figure is 0.371%; as for `COCC(=O)NC1CC2(CCN(CCO)CC2)c2ccccc21` (stereo not given), 8.06%.
As to `O=C(NCCc1cccs1)[C@H]1CO[C@H]2CCN(C3CCC3)C[C@H]2C1`, the cytotoxicity at 70.5 h is -0.468%.
As for `CCC1=N[C@@]2(CC[C@@H]3CN(Cc4ccccc4C)C[C@@H]32)C(=O)N1C`, the figure is 0.166%; as for `CCC1=N[C@@]2(CC[C@@H]3CN(Cc4cccc(Cl)c4)C[C@@H]32)C(=O)N1C`, 16.7%; as for `Cn1cc(CNC2CCc3c(ccc(=O)n3Cc3ccncc3)C2)cn1` (stereo not given), -15.3%.
The result for `CCCN1CCC2(CC1)CN(C(=O)c1cccnc1)c1ccc(F)cc12` reads -8.65%; that for `CCN1CCC2(CC1)CN(C(=O)c1cccnc1)c1ccc(Cl)cc12`, -10.5%; that for `O=C(NC[C@]12COC[C@H]1CN(Cc1cccnc1)C2)C1CCC1`, -4.65%.
On to `Cc1ccc(CN2CC3(CCN(C(=O)c4cccnc4)C3)C2)o1`, for which the cytotoxicity at 70.5 h is 3.03%.
The result for `Cc1ccc(CN2CCn3cc(CN4CCN(C)CC4)nc3C2)cc1` reads -13.5%; that for `FC1(F)CCN(Cc2ccncc2)CC12CCN(c1cccnc1)C2` (stereo not given), 2.6%.
